Experimental data: patent publication US10220083B2 (priority 2014, dated 2019)

Legend:
[1] = tested on: human pneumococcal reference serum 007sp (pooled sera of humans immunized with Pneumovax); format: binding
mAb 1H8 [2] = experiment: Surface plasmon resonance with captured mAb 1H8; format: binding, mouse; details: saccharide 18 at 20 μM, polysaccharides at 10 μg/mL in PBS
Method: Surface Plasmon Resonance was performed on a Biacore T100 instrument (GE Healthcare). Analysis was performed using the Mouse Antibody Capture Kit and Amine Coupling Kit (GE Healthcare) for immobilization. About 10000 response units (RU) of capture antibody were immobilized. A commercial mouse IgG (cat. no. 026502, Invitrogen, Carlsbad, US) was immobilized as a dummy in a reference cell (about 10000 RU). About 800 RU of mAb 1H8 were captured prior to every run using a mAb concentration of 50 μg/mL. Runs were performed using PBS as a running buffer and a flow rate of 30 μL/min with 60 s association and 120 s dissociation periods, respectively. Polysaccharides were used at a concentration of 10 μg/mL and saccharide 18 at 20 μM in PBS.

mAb 1F1 = format: binding, mouse
mAb 1H8 [3] = format: binding, mouse

| SMILES | interaction with the antiserum from human vaccinated with Pneumovax23 [1] | recognition by antiserum from human vaccinated with Pneumovax23 (007sp) [1] | recognition by mAb 1H8 (surface plasmon resonance) (mAb 1H8 [2]) | binding of mAb 1F1 after inhibition with native SP8 polysaccharide (mAb 1F1) | recognition by mAb 1F1 (mAb 1F1) | binding of mAb 1H8 after inhibition with native SP8 polysaccharide (mAb 1H8 [3]) | recognition by mAb 1H8 (mAb 1H8 [3]) |
| --- | --- | --- | --- | --- | --- | --- | --- |
| NCCO[C@H]1OC(CO)[C@H](O[C@H]2OC(CO)[C@@H](O[C@@H]3OC(CO)[C@@H](O[C@@H]4OC(C(=O)O)[C@@H](O)[C@H](O)C4O)[C@H](O)C3O)[C@H](O)C2O)[C@H](O)C1O (stereo partly drawn) [saccharide 18, β-D-Glucopyranosyluronic acid-(1→4)β-D-glucoyranosyl-(1→4)-α-D-glucopyranosyl-(1→4)-α-D-galactopyranosyl-(1→1)-(2-amino)ethanol] | Robust interactions | recognized | specifically recognizes | – | – | – | – |
| NCCO[C@H]1OC(CO)[C@H](O[C@H]2OC(CO)[C@@H](O[C@@H]3OC(CO)[C@@H](O[C@@H]4OC(C(=O)O)[C@@H](O[C@H]5OC(CO)[C@H](O)[C@H](O)C5O)[C@H](O)C4O)[C@H](O)C3O)[C@H](O)C2O)[C@H](O)C1O (stereo partly drawn) [saccharide 55, α-D-galactopyranosyl-(1→4)-β-D-glucopyranosyluronate-(1→4)-β-D-glucoyranosyl-α-D-glucopyranosyl-(1→4)-α-D-galactopyranosyl-(1→1)-(2-amino)ethanol] | – | – | – | abrogated | recognized with similar intensities | abrogated | recognized with similar intensities |
| NCCO[C@H]1OC(CO)[C@H](O[C@H]2OC(CO)[C@@H](O[C@@H]3OC(CO)[C@@H](O[C@@H]4OC(C(=O)O)[C@@H](O[C@H]5OC(CO)[C@H](O[C@H]6OC(CO)[C@@H](O)[C@H](O)C6O)[C@H](O)C5O)[C@H](O)C4O)[C@H](O)C3O)[C@H](O)C2O)[C@H](O)C1O (stereo partly drawn) [saccharide 57, α-D-glucopyranosyl-(1→4)-α-D-galactopyranosyl-(1→4)-β-D-glucopyranosyluronate-(1→4)-β-D-glucoyranosyl-(1→4)-α-D-glucopyranosyl-(1→4)-α-D-galactopyranosyl-(1→1)-(2-amino)ethanol] | – | – | – | abrogated | recognized with similar intensities | abrogated | recognized with similar intensities |
| NCCO[C@H]1OC(CO)[C@H](O[C@H]2OC(CO)[C@@H](O[C@@H]3OC(CO)[C@@H](O[C@@H]4OC(CO)[C@@H](O)[C@H](O)C4O)[C@H](O)C3O)[C@H](O)C2O)[C@H](O)C1O (stereo partly drawn) [saccharide 60, β-D-Glucopyranosyl-(1→4)β-D-glucoyranosyl-(1→4)-α-D-glucopyranosyl-(1→4)-α-D-galactopyranosyl-(1→1)-(2-amino)ethanol] | – | – | – | – | recognized with similar intensities | – | recognized with similar intensities |
| NCCO[C@H]1OC(CO)[C@H](O[C@H]2OC(CO)[C@@H](O[C@@H]3OC(CO)[C@@H](O)[C@H](O)C3O)[C@H](O)C2O)[C@H](O)C1O (stereo partly drawn) [saccharide 62, β-D-Glucoyranosyl-(1→4)-α-D-glucopyranosyl-(1→4)-α-D-galactopyranosyl-(1→1)-(2-amino)ethanol] | – | – | – | – | recognized with similar intensities | – | recognized with similar intensities |
